# Assay results taken from patent US20210369846A1 (priority 2018, published 2021).
# Where “and” joins values, the source holds several entries; their conditions need not be identical. Equal entries are not always repeated. Entries after “also recorded” stand apart in the source; their conditions may differ. Marks after values point to notes of the source that are not given here.
# How the values were obtained:
# [1] = Particle size distribution of O/W emulsions with Accusizer 780 Optical Particle Sizer; type: physicochemical; conditions: O/W emulsion; footnote c: measured with Accusizer 780 Optical Particle Sizer
# Experimental: In an exemplary method of preparation, 180 mg of the surfactant was dissolved in 9 mL of ultrapure water (MilliQ), then 1 mL of Perfluorodecalin was added to the solution. The mixture was sonicated using an UP400St Hielscher ultrasonic homogenizer. Operation parameters of the device: A=90% (amplitude), continuous operation mode, sonotrode type—H14. The process of ultrasonic homogenization was carried out for about 2 minutes, while the reaction vessel was intensely cooled using an ice bath. 10 mL of the o/w emulsion with 10% v/v of the perfluorinated phase relative to the aqueous phase was obtained. As can be appreciated, this method is merely exemplary, and other methods or preparation approaches may be used.
# The emulsion particle size distribution was determined using the Accusizer 780 Optical Particle Sizer PSS NICOMP device. A series of dilutions of the analyzed emulsion were prepared: 10-fold, 100-fold and 1000-fold with ultrapure water (MilliQ), in triplicate. The particle size distribution of the 1000-fold diluted emulsion was examined, a minimum of 3 measurements were taken, preparing approximately 30 mL of the diluted emulsion for each one of them. The results were presented by the several values: the average diameter (given in μm), and the percentage number of particles in different ranges (for example, in the diameter range 0.5-2 μm, 2-5 μm, 5-10 μm, >10 μm). The values from these three measurements were averaged and standard deviation was calculated.
# [2] = test system: HMEC-1 human vascular endothelial cells
# male Sprague Dawley rats = experiment: Red blood cells substitute in vivo test: gradual bleeding with compensation in rats under general anaesthesia; set-up: species or system rat; conditions: for Amount of 5-min intervals (duration until cardiac cessation, per rat): exchange of 5% of blood volume per interval; for Amount of 5-min intervals (duration until cardiac cessation, per rat) / Amount of 5-min intervals expressed in min (per rat): individual rats; for Hematocrit at the end of the experiment: gradual decrease from physiological values; for Systolic blood pressure was >40 mm Hg for: tail cuff; for pH maintained at 7.3 up to: venous blood
# Experimental: The study protocol was approved by the Local Ethical Committee (No. WAW2/057/2018), Warsaw University of Life Sciences, Warsaw, Poland. Study was carried out by the Department of Large Animal Diseases with the Clinic of the Faculty of Veterinary Medicine of the Warsaw University of Life Sciences in Warsaw. The study involved male Sprague Dawley rats (n=19; weight, 400±20 g; age, 8 to 12 weeks) obtained from the Mossakowski Medical Research Centre, Polish Academy of Sciences (Warsaw, Poland) divided into 4 non-equal groups (table below). The animals were kept in accordance with national animal welfare guidelines.
# 12 h before the experiment, feedstuffs were removed from animals' cages without restrictions to the water. Animals were weighted for circulating blood volume calculation according to Lee and Blaufox (1985) and anesthetized by intramuscular injection of the mixture of Ceptor—0.1 mL (Scanvet), Butomidor—0.1 mL (Richter Pharma AG) and Bioketan—0.1 mL (Vetoquinol). Within 2 min after injection, animals were placed in the dorsal position, on Thermo-Controlled Surgery Platform (Braintree Scientific, USA) and the catheter for blood collection was implanted.
# A silicone catheter (Scientific Commodities INC, USA) was inserted into the left common jugular vein towards the heart and fastened with a tie (non-absorbable twisted strand, 4-0) for best fluid delivery and blood sampling. The catheter was kept filled with Ringer's fluid between the blood removals. The catheter's patency was maintained without the use of anti-clotting agents. The skin was not stitched, a swab moistened with saline solution was applied to the wound. Then the rats were transferred to a GN 1/1 electric heating plate (temp. 37±1° C., Bartscher, Poland), where a cuff was applied to the rat's tail to measure bloodless tail blood pressure (MLT125R, ADI, Australia), connected to the system NIBP (Non-Invasive Blood Pressure, ADI, Australia) and eight-channel PowerLab (ADI, Australia) and PC. Throughout the experiment, pulse and blood pressure were recorded in the Chart program (ADI, Australia). During the entire experiment, systolic and mean arterial blood readings were taken up to a blood pressure systolic threshold reading of 40 mm Hg between blood collections.
# A total of 4 experiment variants were performed, as in the table above, using the method of gradual bleeding with compensation described in the previous experiment (5% of circulating blood). Compensations were used in subsequent experiments: Voluven fluid (Hydroxyethyl starch (HES 130/0.4), dextran 130 kDa, Fresenius Kabi) and formulations 2j3c, 2j3e and 2l3e (NanoSanguis) administered in Voluven fluid (concentration 0.5% w/v).
# In venous blood samples, blood gas determinations (Siemens EPOC gasometer) were performed: pH, pCO2 (CO2 pressure, mm Hg), pO2 (oxygen pressure, mm Hg), cHCO3-(bicarbonate ion concentration, mmol/L), BE (ecf) (deficiency in blood buffering bases, mmol/L), hematocrit (Hct, %, less precise measurement than in a morphology analyzer), glucose (mg/dL), lactate (Lac, mmol/L), creatinine (Crea, mg/dL) followed by morphology (Mindray analyzer): hematocrit (hct, %), hemoglobin (g/L), red blood cell count (RBC, 10^12/L), white blood cell count (WBC, ×10^9/L) and platelet count (PLT, ×10^9/L). […] The results are given in the attached Excel spreadsheet. Blood for other biochemical analyses was centrifuged and frozen (−20° C.). Collected organ (liver, kidney, lung and heart) samples were fixed in buffered formalin, and after 48 hours. transferred to 70% ethyl alcohol and stored for histological examination. Histological examination was performed after routine staining of the hematoxylin and eosin sections.
# [3] = test system: L929 and HMEC-1 cell lines
Structure (SMILES),Maximum Non-Hemolytic Concentration (blood),Maximum Non-Cytotoxic Concentration L929 (L929 mouse fibroblasts),Average diameter [1],Maximum Non-Cytotoxic Concentration HMEC-1 [2],also measured
O=C(O)CSCCC(F)(F)C(F)(F)C(F)(F)C(F)(F)C(F)(F)C(F)(F)C(F)(F)C(F)(F)F [2a3d],0.02%,0.2%,640 ± 10 ^c nm,0.1%,
O=C(O)CCC(=O)OCCC(F)(F)C(F)(F)C(F)(F)C(F)(F)C(F)(F)C(F)(F)C(F)(F)C(F)(F)F [2j3c],>2.00%,0.25%,,0.5%,"Lactate concentration above physiological values (limit 8.5 mmol/L) occurred at intervals (male Sprague Dawley rats; 0.5% w/v in Voluven): 15 intervals and 19 intervals; RBC at the end of the experiment (male Sprague Dawley rats; 0.5% w/v in Voluven): ~2e+12 L⁻¹; Survival of rats higher compared to the control group receiving Voluven (male Sprague Dawley rats; 0.5% w/v in Voluven): 7 intervals; WBC at the end of the experiment (male Sprague Dawley rats; 0.5% w/v in Voluven): ~1e+09 L⁻¹; Amount of 5-min intervals (duration until cardiac cessation, per rat) (male Sprague Dawley rats; 0.5% w/v in Voluven): 24 5-min intervals and 23 5-min intervals and 18 5-min intervals (2×) and 11 5-min intervals; Hematocrit at the end of the experiment (male Sprague Dawley rats; 0.5% w/v in Voluven): about 9%; Amount of 5-min intervals expressed in min (per rat) (male Sprague Dawley rats; 0.5% w/v in Voluven): 55 min and 120 min and 115 min and 90 min (2×); Systolic blood pressure was >40 mm Hg for (male Sprague Dawley rats; 0.5% w/v in Voluven): 12 intervals and 20 intervals; pH maintained at 7.3 up to (male Sprague Dawley rats; 0.5% w/v in Voluven): 13 intervals and 17 intervals"
O=C(O)CCC(=O)OCCC(F)(F)C(F)(F)C(F)(F)C(F)(F)C(F)(F)C(F)(F)C(F)(F)C(F)(F)F [2j3e],1%,0.5%,,0.5%,"Buffer balance deficiency (Be (ecf)) occurred at (male Sprague Dawley rats; 0.5% w/v in Voluven): 14-19 intervals; Lactate concentration above physiological values (limit 8.5 mmol/L) occurred at intervals (male Sprague Dawley rats; 0.5% w/v in Voluven): 13-19 intervals; Survival of rats higher compared to the control group receiving Voluven (male Sprague Dawley rats; 0.5% w/v in Voluven): 8 intervals; Amount of 5-min intervals (duration until cardiac cessation, per rat) (male Sprague Dawley rats; 0.5% w/v in Voluven): 15 5-min intervals and 17 5-min intervals and 21 5-min intervals and 25 5-min intervals and 29 5-min intervals; Hematocrit at the end of the experiment (male Sprague Dawley rats; 0.5% w/v in Voluven): about 5%; Amount of 5-min intervals expressed in min (per rat) (male Sprague Dawley rats; 0.5% w/v in Voluven): 145 min and 75 min and 85 min and 105 min and 125 min; pH maintained at 7.3 up to (male Sprague Dawley rats; 0.5% w/v in Voluven): 13 intervals and 20 intervals; Maintaining systolic pressure above the limit, comparing to other test groups (male Sprague Dawley rats; limit 40 mm Hg): longer"
O=C(O)CCCC(=O)OCCC(F)(F)C(F)(F)C(F)(F)C(F)(F)C(F)(F)C(F)(F)C(F)(F)C(F)(F)F [2l3e],>2.00%,>2.00%,,>2.00%,"Survival of rats higher compared to the control group receiving Voluven (male Sprague Dawley rats; 0.5% w/v in Voluven): 10 intervals; Amount of 5-min intervals (duration until cardiac cessation, per rat) (male Sprague Dawley rats; 0.5% w/v in Voluven): 10 5-min intervals and 13 5-min intervals and 21 5-min intervals and 28 5-min intervals and 31 5-min intervals; Amount of 5-min intervals expressed in min (per rat) (male Sprague Dawley rats; 0.5% w/v in Voluven): 155 min and 60 min and 75 min and 105 min and 140 min; Systolic blood pressure was >40 mm Hg for (male Sprague Dawley rats; 0.5% w/v in Voluven): 18-22 intervals; pH maintained at 7.3 up to (male Sprague Dawley rats; 0.5% w/v in Voluven): 20-21 intervals; Change caused slower in comparison to the control group (male Sprague Dawley rats; control: Voluven): pH decrease; also recorded: increase in pCO2; also recorded: decrease in buffer base deficiency; also recorded: increase of lactate and creatinine"
O=C([O-])CSCCC(F)(F)C(F)(F)C(F)(F)C(F)(F)C(F)(F)C(F)(F)C(F)(F)C(F)(F)F.[Na+] [2cNa],0.5%,1%,710 ± 20 ^c nm,0.2%,
O=C(O)CSCCC(F)(F)C(F)(F)C(F)(F)C(F)(F)C(F)(F)C(F)(F)C(F)(F)C(F)(F)F [2a3b],0.25%,0.5%,640 ± 10 ^c nm,0.5%,
O=C([O-])CCC(=O)OCCC(F)(F)C(F)(F)C(F)(F)C(F)(F)C(F)(F)C(F)(F)F.[K+] [2iK],0.02%,<0.25** %,880 ± 40 ^c nm,0.25%,
O=C(O)CCCC(=O)OCCC(F)(F)C(F)(F)C(F)(F)C(F)(F)C(F)(F)C(F)(F)C(F)(F)C(F)(F)F [2l3k],>2.00%,>1.00%,,>1.00%,Cytotoxic potential [3]: low cytotoxic potential
O=C([O-])CCC(=O)OCCC(F)(F)C(F)(F)C(F)(F)C(F)(F)C(F)(F)C(F)(F)C(F)(F)C(F)(F)F.[Na+] [2jNa],1%,<0.25%,820 ± 20 ^c nm,0.5%,
O=C([O-])CSCCC(F)(F)C(F)(F)C(F)(F)C(F)(F)C(F)(F)C(F)(F)C(F)(F)C(F)(F)F.[K+] [2aK],>2.00%,1%,770 ± 20 ^c nm,1%,
O=C([O-])CCC(=O)OCCC(F)(F)C(F)(F)C(F)(F)C(F)(F)C(F)(F)C(F)(F)C(F)(F)C(F)(F)F.[K+] [2jK],>2.00%,<0.25%,1090 ± 10 ^c nm,0.5%,
